Reference: patent US7342122B2, “Bisphosphonate complexes” (priority 2003, dated 2008)

How the values were obtained:
BSY-1 = test: Cell growth inhibition, breast cancer cell line BSY-1; assay type: cell-based; settings: BSY-1, breast cancer cell line
Procedure: (§1) KB cells were purchased from Human Science Research Resource Bank (Osaka, Japan). The cells were cultured in Earle's MEM (GIBCO BRL) containing 10% FBS (Bio Whittaker) at 37° C. under 5% CO2. After 24 hours the test compounds were added to the cells at the indicated concentrations. 72 hours later the cells were stained with tripan blue and counted manually. IC50 is calculated as the concentration (aqueous solution) of complex required to inhibit growth of cells by 50%.
(§2) In a similar fashion a representative number of examples of compounds of the invention were tested for their ability to inhibit the growth/proliferation of cell types representing a number of different cancers. The results are provided in Tables 4-13, below, which provide the Inhibition Constants (IC50, μM) for each compound across various cell lines.

MCF-7 = test: Cell growth inhibition, breast cancer cell line MCF-7; assay type: cell-based; settings: MCF-7, breast cancer cell line
Procedure: as §1, §2

MKN1 = test: Cell growth inhibition, human stomach cancer MKN1; assay type: cell-based
Procedure: as §1, §2

DMS273 = test: Cell growth inhibition, lung cancer cell line DMS273; assay type: cell-based
Procedure: as §1, §2

MDA-MB-231 = test: Cell growth inhibition, breast cancer cell line MDA-MB-231; assay type: cell-based; settings: MDA-MB-231, breast cancer cell line
Procedure: as §1, §2

A549 = test: Cell growth inhibition, lung cancer cell line A549; assay type: cell-based
Procedure: as §1, §2

SF-268 = test: Cell growth inhibition, brain cancer cell line SF-268; assay type: cell-based; settings: SF-268, brain cancer cell line
Procedure: as §1, §2

HT-29 = test: Cell growth inhibition, colon cancer cell line HT-29; assay type: cell-based; settings: HT-29, colon cancer cell line
Procedure: as §1, §2

LOX-IMVI = test: Cell growth inhibition, melanoma cell line LOX-IMVI; assay type: cell-based
Procedure: as §1, §2

SF-539 = test: Cell growth inhibition, brain cancer cell line SF-539; assay type: cell-based; settings: SF-539, brain cancer cell line
Procedure: as §1, §2

NCI-H23 = test: Cell growth inhibition, lung cancer cell line NCI-H23; assay type: cell-based
Procedure: as §1, §2

MKN28 = test: Cell growth inhibition, human stomach cancer MKN28; assay type: cell-based
Procedure: as §1, §2

MKN7 = test: Cell growth inhibition, human stomach cancer MKN7; assay type: cell-based
Procedure: as §1, §2

DU-145 = test: Cell growth inhibition, prostatic cancer DU-145; assay type: cell-based, human; settings: DU-145, prostatic cancer
Procedure: as §1, §2

SNB-78 = test: Cell growth inhibition, brain cancer cell line SNB-78; assay type: cell-based; settings: SNB-78, brain cancer cell line
Procedure: as §1, §2

NCI-H522 = test: Cell growth inhibition, lung cancer cell line NCI-H522; assay type: cell-based
Procedure: as §1, §2

NCI-H226 = test: Cell growth inhibition, lung cancer cell line NCI-H226; assay type: cell-based
Procedure: as §1, §2

SF-295 = test: Cell growth inhibition, brain cancer cell line SF-295; assay type: cell-based; settings: SF-295, brain cancer cell line
Procedure: as §1, §2

MKN74 = test: Cell growth inhibition, human stomach cancer MKN74; assay type: cell-based
Procedure: as §1, §2

U251 = test: Cell growth inhibition, brain cancer cell line U251; assay type: cell-based
Procedure: as §1, §2

PC-3 = test: Cell growth inhibition, prostatic cancer PC-3; assay type: cell-based; settings: PC-3, prostatic cancer
Procedure: as §1, §2

ACHN = test: Cell growth inhibition, renal cancer ACHN; assay type: cell-based
Procedure: as §1, §2

RXF-631L = test: Cell growth inhibition, renal cancer RXF-631L; assay type: cell-based
Procedure: as §1, §2

HCC2998 = test: Cell growth inhibition, colon cancer cell line HCC2998; assay type: cell-based
Procedure: as §1, §2

SK-OV-3 = test: Cell growth inhibition, ovarian cancer cell line SK-OV-3; assay type: cell-based; settings: SK-OV-3, ovarian cancer cell line
Procedure: as §1, §2

NCI-H460 = test: Cell growth inhibition, lung cancer cell line NCI-H460; assay type: cell-based
Procedure: as §1, §2

MKN45 = test: Cell growth inhibition, human stomach cancer MKN45; assay type: cell-based
Procedure: as §1, §2

OVCAR-5 = test: Cell growth inhibition, ovarian cancer cell line OVCAR-5; assay type: cell-based; settings: OVCAR-5, ovarian cancer cell line
Procedure: as §1, §2

[1] = test system: all cell types (cancer cell lines of Tables 4-12); test: Cell growth inhibition, mean over all cell types of the panel; assay type: cell-based; settings: mean over all cell lines of Tables 4-12
Procedure: as §1, §2

KM-12 = test: Cell growth inhibition, colon cancer cell line KM-12; assay type: cell-based; settings: KM-12, colon cancer cell line
Procedure: as §1, §2

HCT-116 = test: Cell growth inhibition, colon cancer cell line HCT-116; assay type: cell-based; settings: HCT-116, colon cancer cell line
Procedure: as §1, §2

St-4 = test: Cell growth inhibition, human stomach cancer St-4; assay type: cell-based; settings: St-4, human stomach cancer
Procedure: as §1, §2

DMS114 = test: Cell growth inhibition, lung cancer cell line DMS114; assay type: cell-based
Procedure: as §1, §2

HBC-5 = test: Cell growth inhibition, breast cancer cell line HBC-5; assay type: cell-based; settings: HBC-5, breast cancer cell line
Procedure: as §1, §2

OVCAR-8 = test: Cell growth inhibition, ovarian cancer cell line OVCAR-8; assay type: cell-based; settings: OVCAR-8, ovarian cancer cell line
Procedure: as §1, §2

OVCAR-3 = test: Cell growth inhibition, ovarian cancer cell line OVCAR-3; assay type: cell-based; settings: OVCAR-3, ovarian cancer cell line
Procedure: as §1, §2

SNB-75 = test: Cell growth inhibition, brain cancer cell line SNB-75; assay type: cell-based; settings: SNB-75, brain cancer cell line
Procedure: as §1, §2

HCT-15 = test: Cell growth inhibition, colon cancer cell line HCT-15; assay type: cell-based; settings: HCT-15, colon cancer cell line
Procedure: as §1, §2

HBC-4 = test: Cell growth inhibition, breast cancer cell line HBC-4; assay type: cell-based; settings: HBC-4, breast cancer cell line
Procedure: as §1, §2

OVCAR-4 = test: Cell growth inhibition, ovarian cancer cell line OVCAR-4; assay type: cell-based; settings: OVCAR-4, ovarian cancer cell line
Procedure: as §1, §2

Compound	log10 IC50 (M) (BSY-1)	log10 IC50 (M) (MCF-7)	log10 IC50 (M) (MKN1)	log10 IC50 (M) (DMS273)	log10 IC50 (M) (MDA-MB-231)	log10 IC50 (M) (A549)	log10 IC50 (M) (SF-268)	log10 IC50 (M) (HT-29)	log10 IC50 (M) (LOX-IMVI)	log10 IC50 (M) (SF-539)	log10 IC50 (M) (NCI-H23)	log10 IC50 (M) (MKN28)	log10 IC50 (M) (MKN7)	log10 IC50 (M) (DU-145)	log10 IC50 (M) (SNB-78)	log10 IC50 (M) (NCI-H522)	log10 IC50 (M) (NCI-H226)	log10 IC50 (M) (SF-295)	log10 IC50 (M) (MKN74)	log10 IC50 (M) (U251)	further results
[Cl-].[Cl-].c1cc[n+]2c(c1)-c1cccc[n+]1[Pt-2]21[NH2+]CCC[NH+]1Cc1c2ccccc2cc2ccccc12 [Example 7, Pt(bpy)(AtC3)]	-5.89	-5.69	-5.6	-5.68	-5.78	-5.68	-5.62	-5.69	-5.76	-5.75	-5.53	-5.64	-5.62	-5.73	-5.54	-5.77	-5.64	-5.62	-5.63	-5.66	log10 IC50 (M) (PC-3): -5.59; log10 IC50 (M) (ACHN): -5.67; log10 IC50 (M) (RXF-631L): -5.67; log10 IC50 (M) (HCC2998): -5.7; log10 IC50 (M) (SK-OV-3): -5.61; log10 IC50 (M) (NCI-H460): -5.71; log10 IC50 (M) (MKN45): -5.63; log10 IC50 (M) (OVCAR-5): -5.8; log10 IC50 (M) [1]: -5.68; log10 IC50 (M) (KM-12): -5.69; log10 IC50 (M) (HCT-116): -5.72; log10 IC50 (M) (St-4): -5.61; log10 IC50 (M) (DMS114): -5.76; log10 IC50 (M) (HBC-5): -5.89; log10 IC50 (M) (OVCAR-8): -5.52; log10 IC50 (M) (OVCAR-3): -5.68; log10 IC50 (M) (SNB-75): -5.59; log10 IC50 (M) (HCT-15): -5.56; log10 IC50 (M) (HBC-4): -5.76; log10 IC50 (M) (OVCAR-4): -5.7
cis-Pt (NH3)2(Pyrophosphate) [Example 8]	-5.2	-4.77	-5.18	-4.97	-4.35	-4.79	-5.11	-4.44	-4.85	-5.17	-5.2	-4.52	-4.76	-5.29	-4.61	-5.16	-4.64	-5.22	-4.5	-4.64	log10 IC50 (M) (PC-3): -4.45; log10 IC50 (M) (ACHN): -5.37; log10 IC50 (M) (RXF-631L): -4.74; log10 IC50 (M) (HCC2998): -4.57; log10 IC50 (M) (SK-OV-3): -4.65; log10 IC50 (M) (NCI-H460): -5.22; log10 IC50 (M) (MKN45): -4.91; log10 IC50 (M) (OVCAR-5): -4.52; log10 IC50 (M) [1]: -4.83; log10 IC50 (M) (KM-12): -4.43; log10 IC50 (M) (HCT-116): -4.58; log10 IC50 (M) (St-4): -4.61; log10 IC50 (M) (DMS114): -4.85; log10 IC50 (M) (HBC-5): -5.57; log10 IC50 (M) (OVCAR-8): -4.72; log10 IC50 (M) (OVCAR-3): -4.69; log10 IC50 (M) (SNB-75): -4.93; log10 IC50 (M) (HCT-15): -4.51; log10 IC50 (M) (HBC-4): -4.83; log10 IC50 (M) (OVCAR-4): -4.83
